Data published in patent publication US12325685B2, “RXR agonist salt form, polymorphs thereof, and uses thereof” (Io Therapeutics, Inc., priority 2022, dated 2025).
In brackets after ≈: the same amount, converted by molar mass.

How the values were obtained:
[1] = Approximate (thermodynamic) solubility in solvents at room temperature; assay type: physicochemical; settings: for solubility: organic solvent or mixture, thermodynamic from solid
[2] = Kinetic solubility at 37° C. in water and three biorelevant media; assay type: physicochemical
Experimental: Example 7: Kinetic Solubility. Kinetic solubility measurements were conducted on Compound 1 (a free acid) and Form A Tris salt of Compound 1 at 37° C. in water and three biorelevant media: synthetic gastric fluid; fed synthetic small intestinal fluid; and fasting synthetic small intestinal fluid.

[3] = Fasting Synthetic Small Intestinal Fluid, 37° C., 1 Hr
[4] = Fasting Synthetic Small Intestinal Fluid, 37° C., 4 Hrs
[5] = Fasting Synthetic Small Intestinal Fluid, 37° C., 24 Hrs
[6] = Fed Synthetic Small Intestinal Fluid, 37° C., 1 Hr
[7] = Fed Synthetic Small Intestinal Fluid, 37° C., 4 Hrs
[8] = Fed Synthetic Small Intestinal Fluid, 37° C., 24 Hrs
[9] = Synthetic Gastric Fluid, 37° C., 1 Hr
[10] = Synthetic Gastric Fluid, 37° C., 4 Hrs
[11] = Synthetic Gastric Fluid, 37° C., 24 Hrs

SMILES | Observed kinetic aqueous solubility S [2, 3] | pH [2, 3] | Observed kinetic aqueous solubility S [2, 4] | pH [2, 4] | Observed kinetic aqueous solubility S [2, 5] | pH [2, 5] | Observed kinetic aqueous solubility S [2, 6] | pH [2, 6] | Observed kinetic aqueous solubility S [2, 7] | pH [2, 7] | pH [2, 8] | pH [2, 9] | pH [2, 10] | pH [2, 11] | Observed kinetic aqueous solubility S ([2]; Water, 37° C., 1 Hr) | pH ([2]; Water, 37° C., 1 Hr) | Observed kinetic aqueous solubility S ([2]; Water, 37° C., 4 Hrs) | pH ([2]; Water, 37° C., 4 Hrs) | Observed kinetic aqueous solubility S ([2]; Water, 37° C., 24 Hrs) | pH ([2]; Water, 37° C., 24 Hrs) | other results
CC(/C=C/[C@@H]1C[C@]1(C)c1ccc2c(c1)C(C)(C)CCC2(C)C)=C\C(=O)O [Tris Form A] | 740 µg/mL | 6.93 | 830 µg/mL | 7.83 | 860 µg/mL | 9.37 | 2540 µg/mL | 5.91 | 410 µg/mL | 6.84 | 7.33 | 1.76 | 1.96 | 2.12 | 290 µg/mL | 2.68 | 170 µg/mL | 3.21 | 140 µg/mL | 9.3 | Approximate Solubility ([1]; 2-Butanol, listed as TRIS salt Form A): >15000 µg/mL; Approximate Solubility ([1]; Ethanol, listed as TRIS salt Form A): >40000 µg/mL; Approximate Solubility ([1]; Isopropanol, listed as TRIS salt Form A): 8830 to 10600 µg/mL; Approximate Solubility ([1]; Methanol, listed as TRIS salt Form A): >88000 µg/mL; Approximate Solubility ([1]; Water, listed as TRIS salt Form A): 290 µg/mL; solubility kinetic at 24 h ([2]; fed synthetic small intestinal fluid, 37 °C, fessif, thermodynamic from solid, Fed Synthetic Small Intestinal Fluid, 37° C., 24 Hrs, read-out: Observed kinetic aqueous solubility S): 340 µg/mL (≈ 0.964 mM); kinetic aqueous solubility compared to Compound 1 ([2]; relative to free acid, see Table 1): approximately an order of magnitude, or more; kinetic solubility in synthetic gastric fluid (in words) ([2]; synthetic gastric fluid): poor or undetectable
CC(/C=C/[C@@H]1C[C@]1(C)c1ccc2c(c1)C(C)(C)CCC2(C)C)=C\C(=O)O [Compound 1, (2E,4E)-3-methyl-5-((1 S,2S)-2-methyl-2-(5,5,8,8-tetramethyl-5,6,7,8-tetrahydronaphthalen-2-yl)cyclopropyl)penta-2,4-dienoic acid] | 50 µg/mL | 6.48 | 60 µg/mL | 6.88 | 40 µg/mL | 7.50 | 100 µg/mL | 5.09 | 100 µg/mL | 5.17 | 5.21 | 1.67 | 1.78 | 1.92 | 30 µg/mL | 7.78 | 30 µg/mL | 7.83 | 10 µg/mL | 8.33 | Approximate Solubility ([1]; 2-Butanol, listed as Compound 1 (Free Acid)): 108900 to 140000 µg/mL; Approximate Solubility ([1]; Isopropanol, listed as Compound 1 (Free Acid)): 71800 to 87800 µg/mL; Approximate Solubility ([1]; Water, listed as Compound 1 (Free Acid)): 30 µg/mL; solubility ([1]; ethanol): 74900 to 91500 µg/mL (≈ 212 to 260 mM); solubility ([1]; methanol): 57400 to 73100 µg/mL (≈ 163 to 207 mM); Observed kinetic aqueous solubility S [2, 8]: 440 µg/mL; kinetic solubility in synthetic gastric fluid (in words) ([2]; synthetic gastric fluid): poor or undetectable; solubility kinetic at 4 h ([2]; synthetic gastric fluid, 37 °C, simulated gastric fluid, thermodynamic from solid, Synthetic Gastric Fluid, 37° C., 4 Hrs, ND = No Detectable signal by HPLC, read-out: Observed kinetic aqueous solubility S): 20 µg/mL (≈ 0.0567 mM)
